According to DBAASP:
≈ marks a conversion by molar mass, not a printed value.

Experiments:
Experiment in all cases: ≥ marks a high value that may be exact or a test limit, other limits are often not marked, values filed in µg/mL are converted to µM
[1] = system: Bacillus licheniformis X39
[2] = system: Candida albicans ATCC 10231
[3] = system: Enterococcus faecalis 981
[4] = system: Escherichia coli ATCC 25922
[5] = system: Psychrobacter faecalis X29
[6] = system: Rhodococcus rhodochrous X15
Serratia rubidaea X01 = system: Serratia rubidaea X01
[7] = system: Staphylococcus aureus ATCC 25923
[8] = system: Staphylococcus carnosus KHS
[9] = system: Pseudomonas aeruginosa 1.50
[10] = system: Staphylococcus aureus ATCC 2592
[11] = system: Aspergillus niger ATCC 16404
Bacillus cereus = system: Bacillus cereus
[12] = system: Candida glabrata ATCC 15126
[13] = system: Enterococcus faecalis PCM 2673
[14] = system: Escherichia coli ATCC 23506
Escherichia coli = system: Escherichia coli
[15] = system: Klebsiella pneumoniae ATCC 700603
Leuconostoc lactis = system: Leuconostoc lactis
Listeria innocua = system: Listeria innocua
Micrococcus luteus = system: Micrococcus luteus
Pasteurella multocida = system: Pasteurella multocida
[16] = system: Pseudomonas aeruginosa ATCC 9027
[17] = system: Staphylococcus aureus ATCC 9144
Staphylococcus aureus = system: Staphylococcus aureus
[18] = system: Staphylococcus epidermidis
[19] = system: Streptococcus pneumoniae ATCC 49619
Streptococcus uberis = system: Streptococcus uberis
Acinetobacter sp. = system: Acinetobacter sp.
[20] = system: Escherichia coli NCTC 10418
[21] = system: Escherichia coli NCTC 8007
Klebsiella aerogenes = system: Klebsiella aerogenes
Klebsiella sp. = system: Klebsiella sp.
Proteus mirabilis = system: Proteus mirabilis
Providencia stuartii = system: Providencia stuartii
[22] = system: Staphylococcus aureus NCTC 10571

For `CC[C@H](C)[C@H](NC(=O)[C@H](CCCCN)NC(=O)[C@@H]1CCCN1C(=O)[C@H](CC(C)C)NC(=O)[C@H](Cc1ccccc1)NC(=O)[C@H](CC(N)=O)NC(=O)[C@H](C)NC(=O)[C@H](C)NC(=O)[C@H](CC(C)C)NC(=O)CNC(=O)[C@H](C)NC(=O)[C@@H](NC(=O)[C@@H](NC(=O)[C@@H]1CCCN1C(=O)[C@H](CC(C)C)NC(=O)[C@@H](N)Cc1ccccc1)[C@@H](C)CC)C(C)C)C(=O)N[C@H](C(=O)N[C@H]1CSSC[C@@H](C(=O)O)NC(=O)[C@H](CCCCN)NC(=O)[C@H](CCCCN)NC(=O)[C@H]([C@@H](C)O)NC(=O)[C@H]([C@@H](C)CC)NC(=O)[C@H](CCCCN)NC1=O)C(C)C` [FLPIVAGLAANFLPKIVCKITKKC], the MIC [1] was 9 µM (≈ 23.3 µg/mL), the MIC [2] was 150 µM (≈ 388 µg/mL) and the MIC [3] was 19 µM (≈ 49.1 µg/mL). It also gave an MIC [4] of 150 µM (≈ 388 µg/mL), an MIC [5] of 19 µM (≈ 49.1 µg/mL) and an MIC [6] of 1.2 µM (≈ 3.1 µg/mL). For the same compound, the MIC (Serratia rubidaea X01) was 19 µM (≈ 49.1 µg/mL), the MIC [7] was 9 µM (≈ 23.3 µg/mL) and the MIC [8] was 9 µM (≈ 23.3 µg/mL).
`CC[C@H](C)[C@H](NC(=O)CNC(=O)[C@@H](NC(=O)CNC(=O)[C@H](C)NC(=O)CNC(=O)[C@H](CCCN=C(N)N)NC(=O)[C@H](C)NC(=O)[C@@H](NC(=O)CNC(=O)[C@H](CC(C)C)NC(=O)[C@H](C)NC(=O)[C@@H](NC(=O)[C@H](CC(N)=O)NC(=O)[C@H](CCCCN)NC(=O)[C@@H](NC(=O)[C@H](CCCCN)NC(=O)[C@H](CC(=O)O)NC(=O)[C@H](CC(C)C)NC(=O)[C@@H](NC(=O)[C@@H](N)CO)[C@@H](C)CC)[C@@H](C)CC)C(C)C)C(C)C)[C@@H](C)O)C(=O)N[C@@H](CC(C)C)C(=O)N[C@@H](CCCCN)C(=O)N[C@@H](C)C(=O)N[C@@H](CC(C)C)C(=O)N[C@@H](CC(C)C)C(=O)N[C@H]1CSSC[C@@H](C(=O)O)NC(=O)[C@H](CO)NC(=O)[C@H](CCCCN)NC(=O)[C@H](CC(=O)O)NC(=O)[C@H](CC(C)C)NC(=O)[C@H](CCCCN)NC1=O` [SILDKIKNVALGVARGAGTGILKALLCKLDKSC] showed an MIC [1] of 3.8 µM (≈ 12.8 µg/mL), an MIC [4] of 30 µM (≈ 101 µg/mL) and an MIC [9] of 30 µM (≈ 101 µg/mL). For the same compound, the MIC [5] was 1.9 µM (≈ 6.4 µg/mL), the MIC [6] was 1.9 µM (≈ 6.4 µg/mL) and the MIC (Serratia rubidaea X01) was ≥ 60 µM. For the same compound, the MIC [10] was 3.8 µM (≈ 12.8 µg/mL) and the MIC [8] was 1.9 µM (≈ 6.4 µg/mL).
With `CC[C@H](C)[C@H](NC(=O)CNC(=O)CNC(=O)[C@@H](N)CC(C)C)C(=O)N[C@H](C(=O)N[C@@H](CO)C(=O)N[C@@H](C)C(=O)N[C@H](C(=O)N[C@@H](CCCCN)C(=O)N[C@@H](CCCCN)C(=O)N[C@H](C(=O)N[C@H](C(=O)N[C@@H](CC(=O)O)C(=O)N[C@@H](Cc1ccccc1)C(=O)N[C@@H](CC(C)C)C(=O)NCC(N)=O)C(C)C)[C@@H](C)CC)C(C)C)C(C)C` [LGGIVSAVKKIVDFLG] the MIC [11] was ≥ 158 µM, the MIC (Bacillus cereus) was ≥ 61.9 µM and the MIC [2] was 79.2 µM (≈ 128 µg/mL). For the same compound, the MIC [12] was ≥ 158 µM, the MIC [13] was ≥ 79.2 µM and the MIC [14] was ≥ 79.2 µM. The MIC [4] was 39.6 µM (≈ 64 µg/mL), the MIC (Escherichia coli) was > 61.9 µM and the MIC [15] was 19.8 µM (≈ 32 µg/mL). For the same compound, the MIC (Leuconostoc lactis) was 7.43 µM (≈ 12 µg/mL), the MIC (Listeria innocua) was ≥ 61.9 µM and the MIC (Micrococcus luteus) was ≥ 61.9 µM. For the same compound, the MIC (Pasteurella multocida) was ≥ 61.9 µM, the MIC [16] was > 158 µM and the MIC [7] was 39.6 µM (≈ 64 µg/mL). For the same compound, the MIC [17] was ≥ 39.6 µM, the MIC (Staphylococcus aureus) was 30.9 µM (≈ 50 µg/mL) and the MIC [18] was ≥ 61.9 µM. For the same compound, the MIC [19] was ≥ 79.2 µM and the MIC (Streptococcus uberis) was 30.9 µM (≈ 50 µg/mL).
With `CSCC[C@H](NC(=O)[C@H](CC(N)=O)NC(=O)[C@H](CCCN=C(N)N)NC(=O)[C@H](CCC(N)=O)NC(=O)[C@H](Cc1c[nH]c2ccccc12)NC(=O)[C@H](CCC(N)=O)NC(=O)[C@@H](N)Cc1ccccc1)C(=O)N[C@@H](CCCN=C(N)N)C(=O)N[C@@H](CCCCN)C(=O)N[C@H](C(=O)N[C@@H](CCCN=C(N)N)C(=O)O)C(C)C` [FQWQRNMRKVR] the MIC (Acinetobacter sp.) was 0.86 µM (≈ 1.33 µg/mL), the MIC [20] was ≥ 579 µM and the MIC [21] was ≥ 290 µM. For the same compound, the MIC (Klebsiella aerogenes) was ≥ 290 µM, the MIC (Klebsiella sp.) was ≥ 290 µM and the MIC (Proteus mirabilis) was ≥ 1000 µM. For the same compound, the MIC (Providencia stuartii) was ≥ 1000 µM and the MIC [22] was 14 µM (≈ 21.7 µg/mL).
